Structures are written as SMILES.

Sequence of Keap1 (Q14145 whole entry): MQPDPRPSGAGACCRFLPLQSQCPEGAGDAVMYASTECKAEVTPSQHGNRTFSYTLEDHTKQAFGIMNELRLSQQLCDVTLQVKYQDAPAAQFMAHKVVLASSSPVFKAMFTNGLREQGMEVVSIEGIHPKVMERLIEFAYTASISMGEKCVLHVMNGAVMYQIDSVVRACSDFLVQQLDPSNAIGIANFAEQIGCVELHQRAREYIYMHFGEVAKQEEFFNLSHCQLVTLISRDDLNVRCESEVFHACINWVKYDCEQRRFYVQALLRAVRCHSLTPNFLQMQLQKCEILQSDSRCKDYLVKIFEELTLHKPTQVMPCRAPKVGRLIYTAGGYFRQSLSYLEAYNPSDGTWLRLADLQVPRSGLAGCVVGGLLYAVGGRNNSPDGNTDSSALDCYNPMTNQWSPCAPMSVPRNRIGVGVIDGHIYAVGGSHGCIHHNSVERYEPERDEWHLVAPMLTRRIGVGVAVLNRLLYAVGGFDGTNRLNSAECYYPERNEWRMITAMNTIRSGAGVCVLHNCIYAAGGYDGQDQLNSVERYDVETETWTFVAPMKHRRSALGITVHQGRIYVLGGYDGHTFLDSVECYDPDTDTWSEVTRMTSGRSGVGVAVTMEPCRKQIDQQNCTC

The target of the assay is Keap1 (Homo sapiens (Human), UniProt Q14145). The assay can be described thus: HEK293 ARE luciferase assay. In kind it is cell-based. The following applies: HEK-293 ARE firefly luciferase transiently transfected cells; 18 h incubation; mean of 1 to 20 individual measurements. In outline:
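Transiently transfected HEK-293 ARE firefly luciferase cells (10,000/well, DMEM with 10% FCS) exposed to compound, 10-point curve from 100 μM top, 0.3% DMSO, 18 h at 37 °C. SteadyGlo luminescence; activity normalised to 30 μM tBHQ (stimulator) and DMSO (neutral), activity threshold 50; means of 1-20 measurements.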
As for `COC1(c2ncc(F)cc2C)C=C(C#N)C(=O)C2(CCCC2)C1` (stereo not shown) [Compound 149, 9-(5-fluoro-3-methylpyridin-2-yl)-9-methoxy-6-oxospiro[4.5]dec-7-ene-7-carbonitrile], the concentration for a half-maximal effect (EC50) (in general, the concentration that produces a half-maximal response) amounted to 0.201 µM.
Compound `COC1(c2scnc2C)C=C(C#N)C(=O)C(C)(C)C1` (stereo not shown) [Compound 150, 3-methoxy-5,5-dimethyl-3-(4-methyl-1,3-thiazol-5-yl)-6-oxocyclohex-1-ene-1-carbonitrile] returned an EC50 of 0.147 µM.
The compound `COC1(c2ncc(F)cc2C(F)(F)F)C=C(C#N)C(=O)C(C)(C)C1` (stereo not shown) [Compound 151, 3-[5-fluoro-3-(trifluoromethyl)pyridin-2-yl]-3-methoxy-5,5-dimethyl-6-oxocyclohex-1-ene-1-carbonitrile] had an EC50 of 0.034 µM.
`COC1(c2ncc(F)cc2C(F)F)C=C(C#N)C(=O)C(C)(C)C1` (stereo not shown) [Compound 152, 3-[3-(difluoromethyl)-5-fluoropyridin-2-yl]-3-methoxy-5,5-dimethyl-6-oxocyclohex-1-ene-1-carbonitrile]: the EC50 worked out at 0.047 µM.
Under `COC1(c2ncc(F)cc2C)C=C(C#N)C(=O)C2(CCCC2)C1` (stereo not shown) [Compound 153, 9-(5-fluoro-3-methylpyridin-2-yl)-9-methoxy-6-oxospiro[4.5]dec-7-ene-7-carbonitrile] stands 7.09 µM; under `COC1(c2nc(C)c(Br)s2)C=C(C#N)C(=O)C(C)(C)C1` (stereo not shown) [Compound 154, 3-(5-bromo-4-methyl-1,3-thiazol-2-yl)-3-methoxy-5,5-dimethyl-6-oxocyclohex-1-ene-1-carbonitrile], 0.053 µM; under `COC1(c2nc(C)c(-c3ccccn3)s2)C=C(C#N)C(=O)C(C)(C)C1` (stereo not shown) [Compound 155, 3-methoxy-5,5-dimethyl-3-[4-methyl-5-(pyridin-2-yl)-1,3-thiazol-2-yl]-6-oxocyclohex-1-ene-1-carbonitrile], 0.161 µM.
Take `COC1(c2ncc(F)cc2F)C=C(C#N)C(=O)C2(CC2)C1` (stereo not shown) [Compound 156, 7-(3,5-difluoropyridin-2-yl)-7-methoxy-4-oxospiro[2.5]oct-5-ene-5-carbonitrile]: it took 0.249 µM to reach a half-maximal effect (EC50).
The value for `COC1(c2ncc(Cl)cc2F)C=C(C#N)C(=O)C2(CC2)C1` (stereo not shown) [Compound 157, 7-(5-chloro-3-fluoropyridin-2-yl)-7-methoxy-4-oxospiro[2.5]oct-5-ene-5-carbonitrile] was 0.448 µM; that for `COC1(c2ncc(Cl)cc2C(F)F)C=C(C#N)C(=O)C(C)(C)C1` (stereo not shown) [Compound 158, 3-[5-chloro-3-(difluoromethyl)pyridin-2-yl]-3-methoxy-5,5-dimethyl-6-oxocyclohex-1-ene-1-carbonitrile] was 0.021 µM.
For the compound `COC1(c2ncc(F)cc2OC(F)F)C=C(C#N)C(=O)C2(CC2)C1` (stereo not shown) [Compound 160, 7-[3-(difluoromethoxy)-5-fluoropyridin-2-yl]-7-methoxy-4-oxospiro[2.5]oct-5-ene-5-carbonitrile], the EC50 worked out at 0.02 µM.
`COC1(c2ncc(F)cc2-c2cnn(C)c2)C=C(C#N)C(=O)C(C)(C)C1` (stereo not shown) [Compound 161, 3-[5-fluoro-3-(1-methyl-1H-pyrazol-4-yl)pyridin-2-yl]-3-methoxy-5,5-dimethyl-6-oxocyclohex-1-ene-1-carbonitrile] came in with an EC50 of 0.014 µM.
`COC1(c2ncc(F)cc2-c2ccc(F)cc2)C=C(C#N)C(=O)C(C)(C)C1` (stereo not shown) [Compound 163, 3-[5-fluoro-3-(4-fluorophenyl)pyridin-2-yl]-3-methoxy-5,5-dimethyl-6-oxocyclohex-1-ene-1-carbonitrile] gave an EC50 of 0.054 µM.
The value for `COC1(c2ncc(F)cc2-c2cnn(C)c2C)C=C(C#N)C(=O)C(C)(C)C1` (stereo not shown) [Compound 164, 3-[3-(1,5-dimethyl-1H-pyrazol-4-yl)-5-fluoropyridin-2-yl]-3-methoxy-5,5-dimethyl-6-oxocyclohex-1-ene-1-carbonitrile] was 0.028 µM; that for `COC1(c2ncc(F)cc2C#CC(C)C)C=C(C#N)C(=O)C(C)(C)C1` (stereo not shown) [Compound 165, 3-[5-fluoro-3-(3-methylbut-1-yn-1-yl)pyridin-2-yl]-3-methoxy-5,5-dimethyl-6-oxocyclohex-1-ene-1-carbonitrile] was 0.151 µM; that for `COC1(c2ncc(F)cc2-c2cnn(C3CC3)c2)C=C(C#N)C(=O)C(C)(C)C1` (stereo not shown) [Compound 166, 3-[3-(1-cyclopropyl-1H-pyrazol-4-yl)-5-fluoropyridin-2-yl]-3-methoxy-5,5-dimethyl-6-oxocyclohex-1-ene-1-carbonitrile] was 0.014 µM.
The compound `COC1(c2ncc(F)cc2-c2ccc(=O)n(C)c2)C=C(C#N)C(=O)C(C)(C)C1` (stereo not shown) [Compound 167, 3-(5-fluoro-1′-methyl-6′-oxo[1′,6′-dihydro[3,3′-bipyridine]]-2-yl)-3-methoxy-5,5-dimethyl-6-oxocyclohex-1-ene-1-carbonitrile] returned a concentration giving a half-maximal response (EC50) of 0.018 µM.
As to `COC1(c2ncc(F)cc2-c2cnc(C)s2)C=C(C#N)C(=O)C(C)(C)C1` (stereo not shown) [Compound 168, 3-[5-fluoro-3-(2-methyl-1,3-thiazol-5-yl)pyridin-2-yl]-3-methoxy-5,5-dimethyl-6-oxocyclohex-1-ene-1-carbonitrile], a half-maximal effect (EC50) was put at 0.012 µM.
`CCCc1cccnc1C1(OC)C=C(C#N)C(=O)C(C)(C)C1` (stereo not shown) [Compound 169, 3-methoxy-5,5-dimethyl-6-oxo-3-(3-propylpyridin-2-yl)cyclohex-1-ene-1-carbonitrile]: the EC50 is 0.173 µM.
`COC1(c2ncc(F)cc2-c2ccnc(C)c2)C=C(C#N)C(=O)C(C)(C)C1` (stereo not shown) [Compound 170, 3-(5-fluoro-2′-methyl[3,4′-bipyridin]-2-yl)-3-methoxy-5,5-dimethyl-6-oxocyclohex-1-ene-1-carbonitrile] had an EC50 of 0.012 µM.
`COC1(c2ncc(F)cc2-c2cccn(C)c2=O)C=C(C#N)C(=O)C(C)(C)C1` (stereo not shown) [Compound 171, 3-(5-fluoro-1′-methyl-2′-oxo[1′,2′-dihydro[3,3′-bipyridine]]-2-yl)-3-methoxy-5,5-dimethyl-6-oxocyclohex-1-ene-1-carbonitrile] displayed an EC50 of 0.136 µM.
`COC1(c2ncc(F)cc2-c2cn(C)nc2C)C=C(C#N)C(=O)C(C)(C)C1` (stereo not shown) [Compound 172, 3-[3-(1,3-dimethyl-1H-pyrazol-4-yl)-5-fluoropyridin-2-yl]-3-methoxy-5,5-dimethyl-6-oxocyclohex-1-ene-1-carbonitrile]: the EC50 stood at 0.008 µM.
Take `COC1(c2ncc(F)cc2-c2cc(C)nc(C)c2)C=C(C#N)C(=O)C(C)(C)C1` (stereo not shown) [Compound 173, 3-(5-fluoro-2′,6′-dimethyl[3,4′-bipyridin]-2-yl)-3-methoxy-5,5-dimethyl-6-oxocyclohex-1-ene-1-carbonitrile]: the half-maximal effective concentration (EC50) was determined as 0.015 µM.
For `COC1(c2ncc(F)cc2OC(F)F)C=C(C#N)C(=O)C(C)(C)C1` (stereo not shown) [Compound 174, 3-[3-(difluoromethoxy)-5-fluoropyridin-2-yl]-3-methoxy-5,5-dimethyl-6-oxocyclohex-1-ene-1-carbonitrile], the EC50 is 0.041 µM.
Compound `COC1(c2ncc(F)cc2-c2ccnc(C)c2C)C=C(C#N)C(=O)C(C)(C)C1` (stereo not shown) [Compound 175, 3-(5-fluoro-2′,3′-dimethyl[3,4′-bipyridin]-2-yl)-3-methoxy-5,5-dimethyl-6-oxocyclohex-1-ene-1-carbonitrile] gave an EC50 of 0.174 µM.
Regarding `C/C=C/c1cc(F)cnc1C1(OC)C=C(C#N)C(=O)C(C)(C)C1` (stereo not shown) [Compound 176, 3-{5-fluoro-3-[(1E)-prop-1-en-1-yl]pyridin-2-yl}-3-methoxy-5,5-dimethyl-6-oxocyclohex-1-ene-1-carbonitrile], the EC50 came out at 0.019 µM.
For the compound `COC1(c2ncc(F)cc2-c2cccnc2C)C=C(C#N)C(=O)C(C)(C)C1` (stereo not shown) [Compound 177, 3-(5-fluoro-2′-methyl[3,3′-bipyridin]-2-yl)-3-methoxy-5,5-dimethyl-6-oxocyclohex-1-ene-1-carbonitrile], the EC50 turned out to be 0.103 µM.
`COC1(c2ncc(F)cc2-c2ccns2)C=C(C#N)C(=O)C(C)(C)C1` (stereo not shown) [Compound 178, 3-[5-fluoro-3-(1,2-thiazol-5-yl)pyridin-2-yl]-3-methoxy-5,5-dimethyl-6-oxocyclohex-1-ene-1-carbonitrile]: a half-maximal effect (EC50) was put at 0.052 µM.
Under `COC1(c2ncc(F)cc2-c2cnn(-c3ccccc3)c2)C=C(C#N)C(=O)C(C)(C)C1` (stereo not shown) [Compound 179, 3-[5-fluoro-3-(1-phenyl-1H-pyrazol-4-yl)pyridin-2-yl]-3-methoxy-5,5-dimethyl-6-oxocyclohex-1-ene-1-carbonitrile] stands 0.007 µM; under `COC1(c2ncc(F)cc2-c2cnn(C3CCCC3)c2)C=C(C#N)C(=O)C(C)(C)C1` (stereo not shown) [Compound 180, 3-[3-(1-cyclopentyl-1H-pyrazol-4-yl)-5-fluoropyridin-2-yl]-3-methoxy-5,5-dimethyl-6-oxocyclohex-1-ene-1-carbonitrile], 0.115 µM.
`CCn1cc(-c2cc(F)cnc2C2(OC)C=C(C#N)C(=O)C(C)(C)C2)cn1` (stereo not shown) [Compound 181, 3-[3-(1-ethyl-1H-pyrazol-4-yl)-5-fluoropyridin-2-yl]-3-methoxy-5,5-dimethyl-6-oxocyclohex-1-ene-1-carbonitrile] gave an EC50 of 0.068 µM.
`COC1(c2ncc(F)cc2-c2cncc(F)c2)C=C(C#N)C(=O)C(C)(C)C1` (stereo not shown) [Compound 182, 3-(5,5′-difluoro[3,3′-bipyridin]-2-yl)-3-methoxy-5,5-dimethyl-6-oxocyclohex-1-ene-1-carbonitrile] registered an EC50 of 0.105 µM.
The value for `COC1(c2ncc(F)cc2-c2cnc(C)nc2)C=C(C#N)C(=O)C(C)(C)C1` (stereo not shown) [Compound 183, 3-[5-fluoro-3-(2-methylpyrimidin-5-yl)pyridin-2-yl]-3-methoxy-5,5-dimethyl-6-oxocyclohex-1-ene-1-carbonitrile] was 0.121 µM.
In the case of `COC1(c2ncc(F)cc2-c2cncc(C#N)c2)C=C(C#N)C(=O)C(C)(C)C1` (stereo not shown) [Compound 184, 2′-(3-cyano-1-methoxy-5,5-dimethyl-4-oxocyclohex-2-en-1-yl)-5′-fluoro[3,3′-bypyridine]-5-carbonitrile], a half-maximal effect (EC50) was put at 0.121 µM.

The values above are taken from patent publication US11479539B2, “Small molecule modulators of the BTB domain of Keap1” (MedImmune Limited, priority 2017, dated 2022).
